Test results: patent publication US20230233569A1 (Revolution Medicines, Inc., priority 2020, published 2023)
pIC50: −log10 of the molar value.

Columns and labels:
[1] = target: KRAS Q61H (Homo sapiens, UniProt P01116+P62937, Q61H); assay: Disruption of BRAF RBD interaction with Ras (FRET / MOA assay, with Cyclophilin A); type: biochemical; details: KRAS Q61H; read-out: KRAS Q61H FRET data IC50
In short: (§1)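 IC50 reflects compound-driven Ras:Cyclophilin A ternary complex displacing BRAF RBD, read as lowered TR-FRET ratio relative to DMSO after Eu anti-His (10 nM) and APC anti-GST (50 nM) detection for 1.5 h. Prior incubation 3 h, 25° C, with 12.5 nM GMPPNP-loaded Ras, 50 nM BRAF RBD, 25 μM Cyclophilin A; top compound 30 μM.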

[2] = target: NRAS Q61R (Homo sapiens, UniProt P01111+P62937, Q61R); assay: as above; type: biochemical; details: NRAS Q61R; read-out: NRAS Q61R FRET data IC50
Sequence of NRAS Q61R (P01111 whole entry Q61R): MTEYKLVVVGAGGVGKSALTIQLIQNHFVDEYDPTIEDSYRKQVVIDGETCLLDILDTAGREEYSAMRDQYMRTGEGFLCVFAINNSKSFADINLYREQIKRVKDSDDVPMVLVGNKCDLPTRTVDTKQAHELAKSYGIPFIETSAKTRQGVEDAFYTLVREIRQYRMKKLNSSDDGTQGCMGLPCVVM
Sequence of NRAS Q61R (P62937 whole entry): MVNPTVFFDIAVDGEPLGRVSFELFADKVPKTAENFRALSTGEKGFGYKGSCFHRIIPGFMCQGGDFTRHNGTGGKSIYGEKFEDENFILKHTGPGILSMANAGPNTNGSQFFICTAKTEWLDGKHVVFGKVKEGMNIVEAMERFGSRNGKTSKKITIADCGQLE
In short: as §1

[3] = target: NRAS Q61K (Homo sapiens, UniProt P01111+P62937, Q61K); assay: as above; type: biochemical; details: NRAS Q61K; read-out: NRAS Q61K FRET data IC50
Sequence of NRAS Q61K (P01111 whole entry Q61K): as the sequence (P01111 whole entry Q61R) above, with R61K counted along it
Sequence of NRAS Q61K (P62937 whole entry): as the sequence (P62937 whole entry) above
In short: as §1

[4] = target: NRAS WT (Homo sapiens, UniProt P01111+P62937); assay: as above; type: biochemical; details: NRAS WT; read-out: NRAS WT FRET data IC50
Sequence of NRAS WT (P01111 whole entry): as the sequence (P01111 whole entry Q61R) above, with R61Q counted along it
Sequence of NRAS WT (P62937 whole entry): as the sequence (P62937 whole entry) above
In short: as §1

[5] = system: NCI-H358 (K-Ras G12C); assay: CellTiter-Glo cell viability assay, 5-day treatment; type: cell-based; details: Homo sapiens, NCI-H358, 120 h, 5-day treatment; read-out: H358 Cell Viability assay data (K-Ras G12C, IC50)
In short: (§2)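 Viability is read as luminescence on day 5 after direct compound addition to plated cells, following about 30 minutes' room-temperature equilibration. Each signal is scaled to mean DMSO as 100%.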

[6] = system: Capan-1 (K-Ras G12V); assay: as above; type: cell-based; details: Homo sapiens, CAPAN-1, 120 h, 5-day treatment; read-out: Capan-1 Cell Viability assay data (K-Ras G12V, IC50)
In short: as §2

[7] = target: NRAS G12C (Homo sapiens, UniProt P01111+P62937, G12C); assay: Disruption of BRAF RBD interaction with Ras (FRET / MOA assay, with Cyclophilin A); type: biochemical; details: NRAS G12C; read-out: NRAS G12C FRET data IC50
Sequence of NRAS G12C (P01111 whole entry G12C): as the sequence (P01111 whole entry Q61R) above, with G12C, R61Q counted along it
Sequence of NRAS G12C (P62937 whole entry): as the sequence (P62937 whole entry) above

[8] = target: KRAS G12S (Homo sapiens, UniProt P01116+P62937, G12S); assay: as above; type: biochemical; details: read-out: KRAS G12S FRET data, IC50
Sequence of KRAS G12S (P01116 1-169 isoform P01116-2 G12S limits assumed): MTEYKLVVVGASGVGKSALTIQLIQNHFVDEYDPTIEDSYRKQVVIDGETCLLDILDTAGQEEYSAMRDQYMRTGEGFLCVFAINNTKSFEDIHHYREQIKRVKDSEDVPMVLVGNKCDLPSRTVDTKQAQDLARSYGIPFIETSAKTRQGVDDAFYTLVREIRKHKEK
Sequence of KRAS G12S (P62937 whole entry): as the sequence (P62937 whole entry) above
In short: (§3)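 First, compounds at a ten-point threefold dilution series (highest final concentration 30 μM) were incubated with nucleotide-loaded K-Ras, Cyclophilin A and BRAF RBD for 3 h at 25 °C. Next, detection antibodies were added for 1.5 h. Finally, IC50 was calculated from TR-FRET ratio decreases against DMSO controls.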

[9] = target: KRAS G13D (Homo sapiens, UniProt P01116+P62937, G13D); assay: as above; type: biochemical; details: KRAS G13D; read-out: KRAS G13D FRET data IC50
Sequence of KRAS G13D (P01116 1-169 isoform P01116-2 G13D limits assumed): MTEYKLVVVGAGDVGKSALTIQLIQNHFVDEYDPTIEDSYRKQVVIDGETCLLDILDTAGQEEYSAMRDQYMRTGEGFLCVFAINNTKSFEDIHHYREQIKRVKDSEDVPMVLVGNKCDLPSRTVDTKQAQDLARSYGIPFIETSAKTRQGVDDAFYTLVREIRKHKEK
Sequence of KRAS G13D (P62937 whole entry): as the sequence (P62937 whole entry) above
In short: as §3

[10] = target: KRAS G12V (Homo sapiens, UniProt P01116+P62937, G12V); assay: as above; type: biochemical; details: KRAS G12V; read-out: KRAS G12V FRET data IC50
Sequence of KRAS G12V (P01116 1-169 isoform P01116-2 G12V limits assumed): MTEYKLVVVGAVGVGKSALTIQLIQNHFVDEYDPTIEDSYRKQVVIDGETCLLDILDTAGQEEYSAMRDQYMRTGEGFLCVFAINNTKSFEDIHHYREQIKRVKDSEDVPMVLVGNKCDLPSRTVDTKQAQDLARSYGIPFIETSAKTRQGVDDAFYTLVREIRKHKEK
Sequence of KRAS G12V (P62937 whole entry): as the sequence (P62937 whole entry) above
In short: as §3

[11] = target: KRAS WT (Homo sapiens, UniProt P01116+P62937); assay: as above; type: biochemical; details: KRAS WT; read-out: KRAS WT FRET data IC50
Sequence of KRAS WT (P01116 1-169 isoform P01116-2 limits assumed): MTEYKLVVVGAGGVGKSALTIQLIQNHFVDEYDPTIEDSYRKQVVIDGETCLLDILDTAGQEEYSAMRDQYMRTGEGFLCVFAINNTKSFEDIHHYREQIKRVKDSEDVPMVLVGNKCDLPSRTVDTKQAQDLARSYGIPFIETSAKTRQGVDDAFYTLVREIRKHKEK
Sequence of KRAS WT (P62937 whole entry): as the sequence (P62937 whole entry) above
In short: as §3

[12] = target: KRAS G12D (Homo sapiens, UniProt P01116+P62937, G12D); assay: as above; type: biochemical; details: read-out: KRAS G12D FRET data, IC50
Sequence of KRAS G12D (P01116 1-169 isoform P01116-2 G12D limits assumed): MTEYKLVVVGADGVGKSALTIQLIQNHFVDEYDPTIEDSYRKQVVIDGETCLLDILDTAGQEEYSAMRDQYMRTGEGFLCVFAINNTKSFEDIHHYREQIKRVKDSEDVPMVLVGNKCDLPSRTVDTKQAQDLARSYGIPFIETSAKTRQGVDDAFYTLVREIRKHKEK
Sequence of KRAS G12D (P62937 whole entry): as the sequence (P62937 whole entry) above
In short: as §3

[13] = target: KRAS G13C (Homo sapiens, UniProt P01116+P62937, G13C); assay: as above; type: biochemical; details: read-out: KRAS G13C FRET data, IC50
Sequence of KRAS G13C (P01116 1-169 isoform P01116-2 G13C): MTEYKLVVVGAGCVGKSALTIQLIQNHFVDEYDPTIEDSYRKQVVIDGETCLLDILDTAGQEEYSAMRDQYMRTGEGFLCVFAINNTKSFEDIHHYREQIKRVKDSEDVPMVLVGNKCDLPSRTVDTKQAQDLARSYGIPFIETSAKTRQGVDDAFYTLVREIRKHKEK
Sequence of KRAS G13C (P62937 whole entry): as the sequence (P62937 whole entry) above
In short: as §3

[14] = target: KRAS G12C (Homo sapiens, UniProt P01116+P62937, G12C); assay: as above; type: biochemical; details: read-out: KRAS G12C FRET data, IC50
Sequence of KRAS G12C (P01116 1-169 isoform P01116-2 G12C): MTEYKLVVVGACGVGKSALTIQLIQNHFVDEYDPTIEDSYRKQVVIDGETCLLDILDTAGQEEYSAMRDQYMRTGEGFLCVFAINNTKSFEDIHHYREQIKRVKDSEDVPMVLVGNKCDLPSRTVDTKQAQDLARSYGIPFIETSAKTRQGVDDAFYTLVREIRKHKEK
Sequence of KRAS G12C (P62937 whole entry): as the sequence (P62937 whole entry) above
In short: as §3

Sequence of KRAS Q61H (P01116 1-169 isoform P01116-2 Q61H limits assumed): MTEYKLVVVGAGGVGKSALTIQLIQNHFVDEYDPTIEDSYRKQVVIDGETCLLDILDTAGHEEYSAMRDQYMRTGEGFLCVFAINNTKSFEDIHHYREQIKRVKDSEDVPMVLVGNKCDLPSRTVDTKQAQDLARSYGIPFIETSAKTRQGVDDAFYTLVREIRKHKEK
Sequence of KRAS Q61H (P62937 whole entry): as the sequence (P62937 whole entry) above

SMILES | pIC50 [1] | pIC50 [2] | pIC50 [3] | pIC50 [4] | pIC50 [5] | pIC50 [6] | pIC50 [7] | pIC50 [8] | pIC50 [9] | pIC50 [10] | pIC50 [11] | pIC50 [12] | pIC50 [13] | pIC50 [14]
CCn1c(-c2cccnc2[C@H](C)OC)c2c3cc(ccc31)-c1csc(n1)C[C@H](NC(=O)[C@H](C(C)C)N(C)C(=O)N1CC(NC)C1)C(=O)N1CCC[C@H](N1)C(=O)OCC(C)(C)C2 (atropisomer, axis not shown) [Example A337] | 6.00 to 7.00 | 6.00 to 7.00 | 7.00 to 8.00 | 6.00 to 7.00 | 7.00 to 8.00 | 6.00 to 7.00 | 6.00 to 7.00 | 6.00 to 7.00 | 6.00 to 7.00 | 6.00 to 7.00 | 6.00 to 7.00 | 5.00 to 6.00 | 6.00 to 7.00 | 6.00 to 7.00
CCn1c(-c2cccnc2[C@H](C)OC)c2c3cc(ccc31)-c1csc(n1)C[C@H](NC(=O)[C@H](C(C)C)N(C)C(=O)N(C)C1CCC1)C(=O)N1CCC[C@H](N1)C(=O)OCC(C)(C)C2 (atropisomer, axis not shown) [Example A349] | 7.00 to 8.00 | 7.00 to 8.00 | 7.00 to 8.00 | 7.00 to 8.00 | 7.00 to 8.00 | 6.00 to 7.00 | 7.00 to 8.00 | 7.00 to 8.00 | 7.00 to 8.00 | 7.00 to 8.00 | 7.00 to 8.00 | 6.00 to 7.00 | 7.00 to 8.00 | 7.00 to 8.00
CCn1c(-c2cccnc2[C@H](C)OC)c2c3cc(ccc31)-c1csc(n1)C[C@H](NC(=O)[C@H](C(C)C)N(C)C(=O)N1CC(CO)C1)C(=O)N1CCC[C@H](N1)C(=O)OCC(C)(C)C2 (atropisomer, axis not shown) [Example A356] | 7.00 to 8.00 | 7.00 to 8.00 | 7.00 to 8.00 | 7.00 to 8.00 | > 8.00 | 7.00 to 8.00 | 7.00 to 8.00 | 6.00 to 7.00 | 6.00 to 7.00 | 6.00 to 7.00 | 6.00 to 7.00 | 6.00 to 7.00 | 6.00 to 7.00 | 7.00 to 8.00
CCn1c(-c2cccnc2[C@H](C)OC)c2c3cc(ccc31)-c1csc(n1)C[C@H](NC(=O)[C@H](C(C)C)N(C)C(=O)N1CCOCC1)C(=O)N1CCC[C@H](N1)C(=O)OCC(C)(C)C2 (atropisomer, axis not shown) [Example A372] | 7.00 to 8.00 | 7.00 to 8.00 | 7.00 to 8.00 | 7.00 to 8.00 | > 8.00 | 7.00 to 8.00 | 7.00 to 8.00 | 6.00 to 7.00 | 6.00 to 7.00 | 6.00 to 7.00 | 7.00 to 8.00 | 6.00 to 7.00 | 6.00 to 7.00 | 7.00 to 8.00
CCn1c(-c2cccnc2[C@H](C)OC)c2c3cc(ccc31)-c1csc(n1)C[C@H](NC(=O)[C@H](C(C)C)N(C)C(=O)N1CC[C@@H](O)C1)C(=O)N1CCC[C@H](N1)C(=O)OCC(C)(C)C2 (atropisomer, axis not shown) [Example A376] | 7.00 to 8.00 | 6.00 to 7.00 | 7.00 to 8.00 | 6.00 to 7.00 | 7.00 to 8.00 | 7.00 to 8.00 | 7.00 to 8.00 | 6.00 to 7.00 | 6.00 to 7.00 | 6.00 to 7.00 | 6.00 to 7.00 | 6.00 to 7.00 | 6.00 to 7.00 | 7.00 to 8.00
CCn1c(-c2cccnc2[C@H](C)OC)c2c3cc(ccc31)-c1csc(n1)C[C@H](NC(=O)[C@H](C(C)C)N(C)C(=O)N1CC(C#N)C1)C(=O)N1CCC[C@H](N1)C(=O)OCC(C)(C)C2 (atropisomer, axis not shown) [Example A382] | 7.00 to 8.00 | 6.00 to 7.00 | 7.00 to 8.00 | 6.00 to 7.00 | > 8.00 | 7.00 to 8.00 | 7.00 to 8.00 | 6.00 to 7.00 | 6.00 to 7.00 | 6.00 to 7.00 | 6.00 to 7.00 | 6.00 to 7.00 | 6.00 to 7.00 | 7.00 to 8.00
CCn1c(-c2cccnc2[C@H](C)OC)c2c3cc(ccc31)-c1csc(n1)C[C@H](NC(=O)[C@H](C(C)C)N(C)C(=O)N1CCCC1)C(=O)N1CCC[C@H](N1)C(=O)OCC(C)(C)C2 (atropisomer, axis not shown) [Example A400] | 7.00 to 8.00 | 7.00 to 8.00 | 7.00 to 8.00 | 7.00 to 8.00 | 7.00 to 8.00 | 7.00 to 8.00 | 7.00 to 8.00 | 7.00 to 8.00 | 6.00 to 7.00 | 6.00 to 7.00 | 7.00 to 8.00 | 6.00 to 7.00 | 6.00 to 7.00 | 7.00 to 8.00
CCn1c(-c2cccnc2[C@H](C)OC)c2c3cc(ccc31)-c1csc(n1)C[C@H](NC(=O)[C@H](C(C)C)N(C)C(=O)N1CCN(C(=O)C3(N(C)C)CC3)CC1)C(=O)N1CCC[C@H](N1)C(=O)OCC(C)(C)C2 (atropisomer, axis not shown) [Example A443] | 7.00 to 8.00 | 6.00 to 7.00 | 7.00 to 8.00 | 7.00 to 8.00 | > 8.00 | 7.00 to 8.00 | 7.00 to 8.00 | 6.00 to 7.00 | 6.00 to 7.00 | 6.00 to 7.00 | 7.00 to 8.00 | 6.00 to 7.00 | 6.00 to 7.00 | 7.00 to 8.00
CCn1c(-c2cccnc2[C@H](C)OC)c2c3cc(ccc31)-c1csc(n1)C[C@H](NC(=O)[C@H](C(C)C)N(C)C(=O)N1C[C@H]3OCCN(C)[C@H]3C1)C(=O)N1CCC[C@H](N1)C(=O)OCC(C)(C)C2 (atropisomer, axis not shown) [Example A451] | 6.00 to 7.00 | 6.00 to 7.00 | 7.00 to 8.00 | 6.00 to 7.00 | 7.00 to 8.00 | 7.00 to 8.00 | 6.00 to 7.00 | 6.00 to 7.00 | 5.00 to 6.00 | 6.00 to 7.00 | 6.00 to 7.00 | 5.00 to 6.00 | 6.00 to 7.00 | 6.00 to 7.00
